Results from the NIST ThermoML archive (doi:10.1021/je800940j).
Numbers after ± are expanded uncertainties.

Tests used:
[1] = xn = mol fraction of the nth substance listed; details: Liquid; for viscosity: Concentric cylinders viscometry
[2] = 101 kPa, Liquid

C1CC[C@H]2CCCC[C@H]2C1 [cis-decahydronaphthalene] + C1CC[C@H]2CCCC[C@@H]2C1
[1], 101.3 kPa, x1 = 0.4106
Details | mass density [kg/m3] | viscosity [mPa·s]
283.15 K | 887.8 ± 0.47 | 3.097 ± 0.023
293.15 K | 880.25 ± 0.48 | 2.504 ± 0.019
303.15 K | 872.7 ± 0.5 | 2.066 ± 0.016
313.15 K | 865.15 ± 0.52 | 1.734 ± 0.014
323.15 K | 857.65 ± 0.53 | 1.477 ± 0.013

C1CCCCC1 [cyclohexane]
[2]
Details | mass density [kg/m3]
283.15 K | 787.95 ± 0.81
293.15 K | 778.7 ± 0.83
303.15 K | 769.2 ± 0.84
313.15 K | 759.65 ± 0.86
323.15 K | 749.9 ± 0.88

[2], Concentric cylinders viscometry
Details | viscosity [mPa·s]
283.15 K | 1.18 ± 0.011
293.15 K | 0.9847 ± 0.01
303.15 K | 0.8295 ± 0.0093
313.15 K | 0.7061 ± 0.0086
323.15 K | 0.5978 ± 0.008

Cc1ccccc1 [toluene]
[2]
Details | mass density [kg/m3]
283.15 K | 876.1 ± 0.63
293.15 K | 866.75 ± 0.65
303.15 K | 857.48 ± 0.67
313.15 K | 848.08 ± 0.68
323.15 K | 838.7 ± 0.7

[2], Automatic viscometer
Details | viscosity [mPa·s]
283.15 K | 0.6657 ± 0.0033
293.15 K | 0.5958 ± 0.003
303.15 K | 0.5368 ± 0.0027
313.15 K | 0.4859 ± 0.0024
323.15 K | 0.4408 ± 0.0022

Cc1ccccc1 [toluene] + C1CCCCC1
[1], 101 kPa, x2 = 0
Details | mass density [kg/m3] | viscosity [mPa·s]
283.15 K | 876.1 ± 0.63 | 0.6657 ± 0.0084
293.15 K | 866.75 ± 0.65 | 0.5958 ± 0.008
303.15 K | 857.48 ± 0.67 | 0.5368 ± 0.0076
313.15 K | 848.08 ± 0.68 | 0.4859 ± 0.0074
323.15 K | 838.7 ± 0.7 | 0.4408 ± 0.0071
